Source: patent US12338484B2, “FRET biosensor for detecting and reporting NAD+/NADH ratio changes” (Sartorius BioAnalytical Instruments, Inc., priority 2022, dated 2025)

Legend:
Type in all cases: biochemical
[1] = molecular target: Thermus aquaticus T-Rex FRET biosensor construct #14 (Rex(A)-mEGFP-Rex(B)-mKOk, SEQ ID NO: 174), library variant 4-D10, SEQ ID NO: 17 (Thermus aquaticus, UniProt Q9X2V5, E116G/F189I/K117M/K47E/R46D/R58D/S30A/Y98W); test: Signal window in bacterial lysates, FRET ratio in presence or absence of 200 uM NADH (Table 2); conditions: clone 4-D10, SEQ ID NO: 17
Text: (§1) In specific embodiments, the fusion protein comprises the amino acid sequence selected from the group consisting of SEQ ID NO: 13-93, 95-154, and 191-193; the sequences are provided in Table 2 and the examples.
(§2) Protein library DNA was generated following cloning that assembled pieces of DNA that were generated using PCRs with mixtures of primers. DNA was transformed into E. coli, and the first round of protein library expression was done in bacterial colonies on agar plates. The colonies, each expressing different library members, were imaged, and then classified into groups based on their FRET ratio signal. Colonies from different groups were inoculated into 96-deep-well plates for further protein expression in liquid culture. The original construct that was used to generate the library (e.g., construct #14 in Table 2) was also inoculated on the same plates, along with non-expressing bacteria. The latter served as a negative control.

[2] = molecular target: Thermus aquaticus T-Rex FRET biosensor construct #14 (Rex(A)-mEGFP-Rex(B)-mKOk, SEQ ID NO: 174), library variant 1-G8, SEQ ID NO: 16 (Thermus aquaticus, UniProt Q9X2V5, E116G/F189I/K117M/K47E/R46D/R58D/S30A/Y98W); test: as above; conditions: clone 1-G8, SEQ ID NO: 16
Text: as §1, §2

[3] = molecular target: Thermus aquaticus T-Rex FRET biosensor construct #14 (Rex(A)-mEGFP-Rex(B)-mKOk, SEQ ID NO: 174), library variant 1-A7, SEQ ID NO: 20 (Thermus aquaticus, UniProt Q9X2V5, E116G/F189I/K117M/K47E/R46D/R58D/S30A/Y98W); test: as above; conditions: clone 1-A7, SEQ ID NO: 20
Text: as §1, §2

[4] = molecular target: Thermus aquaticus T-Rex FRET biosensor construct #14 (Rex(A)-mEGFP-Rex(B)-mKOk, SEQ ID NO: 174), library variant 4-A2, SEQ ID NO: 19 (Thermus aquaticus, UniProt Q9X2V5, E116G/F189I/K117M/K47E/R46D/R58D/S30A/Y98W); test: as above; conditions: clone 4-A2, SEQ ID NO: 19
Text: as §1, §2

[5] = molecular target: Thermus aquaticus T-Rex FRET biosensor construct #14 (Rex(A)-mEGFP-Rex(B)-mKOk, SEQ ID NO: 174), library variant 4-F1, SEQ ID NO: 18 (Thermus aquaticus, UniProt Q9X2V5, E116G/F189I/K117M/K47E/R46D/R58D/S30A/Y98W); test: as above; conditions: clone 4-F1, SEQ ID NO: 18
Text: as §1, §2

[6] = molecular target: Thermus aquaticus T-Rex FRET biosensor construct #14 (Rex(A)-mEGFP-Rex(B)-mKOk, SEQ ID NO: 174), library variant 1-F8, SEQ ID NO: 13 (Thermus aquaticus, UniProt Q9X2V5, E116G/F189I/K117M/K47E/R46D/R58D/S30A/Y98W); test: as above; conditions: clone 1-F8, SEQ ID NO: 13
Text: as §1, §2

[7] = molecular target: Thermus aquaticus T-Rex FRET biosensor construct #14 (Rex(A)-mEGFP-Rex(B)-mKOk, SEQ ID NO: 174), library variant 3-C8, SEQ ID NO: 14 (Thermus aquaticus, UniProt Q9X2V5, E116G/F189I/K117M/K47E/R46D/R58D/S30A/Y98W); test: as above; conditions: clone 3-C8, SEQ ID NO: 14
Text: as §1, §2

[8] = molecular target: Thermus aquaticus T-Rex FRET biosensor construct #14 (Rex(A)-mEGFP-Rex(B)-mKOk, SEQ ID NO: 174), library variant 2-F3, SEQ ID NO: 15 (Thermus aquaticus, UniProt Q9X2V5, E116G/F189I/K117M/K47E/R46D/R58D/S30A/Y98W); test: as above; conditions: clone 2-F3, SEQ ID NO: 15
Text: as §1, §2

[9] = molecular target: T1, Thermus aquaticus T-Rex FRET fusion, initial construct #8, Rex(78-211)-Rex(78-189)-cpmEGFP(173/174)-Rex(190-211)-mKOk, SEQ ID NO: 168 (Thermus aquaticus, UniProt Q9X2V5, INS189[…]); test: FRET response (emission spectra) of purified initial construct #8 in absence or presence of 40 uM NADH; design: key: Good response: Constructs with very clear and robust spectra separation; Poor response: those with noticeable but small spectra separation; No response: those having no spectra separation
T1 construct: His-tag purified from E. coli
Experimental: (§3) 16 initial FRET constructs (See Table 3) were constructed using expression vector pET28c with a T7 promoter and lac operator and expressed in E. coli. Cells were collected and lysed using a commercially-available lysis buffer. Proteins of interest were isolated from the lysates using Ni-NTA magnetic beads. Eluted proteins were subjected to buffer exchange and final protein concentrating. To test performance of the initial FRET constructs, their emission spectra was recorded on a plate reader in absence or presence of 40 uM NADH. Resulting emission spectra with or without the ligand were normalized and overlaid for each construct. Constructs with very clear and robust spectra separation were labeled as having “good response”, those with noticeable but small spectra separation were labeled as having “poor response”, and finally those having no spectra separation were labeled as having “no response”.

[10] = molecular target: Thermus aquaticus T-Rex FRET fusion, initial construct #9, mKOk-Rex(A)-cpmEGFP(145/146)-Rex(B), SEQ ID NO: 169 (Thermus aquaticus, UniProt Q9X2V5, E116G/F189I/K117M/K204T/K47E/R46D/R58D/S30A/Y98W); test: FRET response (emission spectra) of purified initial construct #9 in absence or presence of 40 uM NADH; design: key: Good response: Constructs with very clear and robust spectra separation; Poor response: those with noticeable but small spectra separation; No response: those having no spectra separation
Experimental: as §3

[11] = molecular target: Thermus aquaticus T-Rex FRET fusion, initial construct #10, Rex(A)-cpmEGFP(145/146)-Rex(B)-mKOk, SEQ ID NO: 170 (Thermus aquaticus, UniProt Q9X2V5, E116G/F189I/K117M/K204T/K47E/R46D/R58D/S30A/Y98W); test: FRET response (emission spectra) of purified initial construct #10 in absence or presence of 40 uM NADH; design: key: Good response: Constructs with very clear and robust spectra separation; Poor response: those with noticeable but small spectra separation; No response: those having no spectra separation
Experimental: as §3

## NC(=O)C1=CN([C@@H]2O[C@H](COP(=O)(O)OP(=O)(O)OC[C@H]3O[C@@H](n4cnc5c(N)ncnc54)[C@H](O)[C@@H]3O)[C@@H](O)[C@H]2O)C=CC1 [NADH]
[1]
  Signal window (ex mode), measured in lysates: 0.34
[2]
  Signal window (ex mode), measured in lysates: 0.34
[3]
  Signal window (ex mode), measured in lysates: 0.31
[4]
  Signal window (ex mode), measured in lysates: 0.32
[5]
  Signal window (ex mode), measured in lysates: 0.33
[6]
  Signal window (ex mode), measured in lysates: 0.55
[7]
  Signal window (ex mode), measured in lysates: 0.4
[8]
  Signal window (ex mode), measured in lysates: 0.34
[9]
  FRET response to NADH: No response
[10]
  FRET response to NADH: No response
[11]
  FRET response to NADH: Good response
